Read-outs that look alike come from different tables or passages of the source.
Assays:
[1] = molecular target: T1, human somatostatin receptor subtype 2 (Homo sapiens, UniProt P30874); assay: cAMP assay for SST2R (inhibition of cAMP in CHO-K1 cells); format: cell-based; settings: Table B; inhibition of cAMP via human SST2 receptor; read-out: SST2 potency
T1 construct: expressed in transfected cells
How it was run: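 Agonism read as decrease in NKH477 (1.6 μM)-stimulated cAMP: compounds applied 20 min, 37° C, with 0.2 mM IBMX, to CHO-K1 stably expressing human SSTR2. cAMP quantified in lysates by time-resolved fluorescence (HTRF kit, 1-24 h RT), standard-curve regression, then EC50.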

[2] = molecular target: T2, human somatostatin receptor subtype 5 (Homo sapiens, UniProt P35346); assay: cAMP assay for SST5R (inhibition of cAMP in CHO-K1 cells); format: cell-based; settings: for EC50: inhibition of cAMP via human SST5 receptor, read-out: SST5 potency; for Fold selectivity for SST5 vs SST2: class symbols, SST5 receptor over SST2 receptor
T2 construct: expressed in transfected cells
How it was run: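 CHO-K1 cells stably expressing human SSTR5 were treated 20 min at 37 °C with compounds plus 1.6 μM NKH477 in HBSS, 0.5 mM HEPES pH 7.4, 0.1% BSA, 0.2 mM IBMX. Lysate cAMP measured by HTRF against a standard curve; EC50 from cAMP-versus-concentration plots.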

T2 sequence (P35346 whole entry): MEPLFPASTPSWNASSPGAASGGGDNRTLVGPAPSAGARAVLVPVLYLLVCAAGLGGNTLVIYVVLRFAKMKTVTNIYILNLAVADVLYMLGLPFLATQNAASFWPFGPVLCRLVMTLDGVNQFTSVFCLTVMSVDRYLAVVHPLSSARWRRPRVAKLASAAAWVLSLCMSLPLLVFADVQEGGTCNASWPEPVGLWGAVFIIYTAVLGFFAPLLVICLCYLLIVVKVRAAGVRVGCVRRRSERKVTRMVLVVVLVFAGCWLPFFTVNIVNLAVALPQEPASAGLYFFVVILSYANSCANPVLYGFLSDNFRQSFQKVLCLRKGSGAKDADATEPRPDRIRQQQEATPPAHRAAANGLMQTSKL
T1 sequence (P30874 whole entry): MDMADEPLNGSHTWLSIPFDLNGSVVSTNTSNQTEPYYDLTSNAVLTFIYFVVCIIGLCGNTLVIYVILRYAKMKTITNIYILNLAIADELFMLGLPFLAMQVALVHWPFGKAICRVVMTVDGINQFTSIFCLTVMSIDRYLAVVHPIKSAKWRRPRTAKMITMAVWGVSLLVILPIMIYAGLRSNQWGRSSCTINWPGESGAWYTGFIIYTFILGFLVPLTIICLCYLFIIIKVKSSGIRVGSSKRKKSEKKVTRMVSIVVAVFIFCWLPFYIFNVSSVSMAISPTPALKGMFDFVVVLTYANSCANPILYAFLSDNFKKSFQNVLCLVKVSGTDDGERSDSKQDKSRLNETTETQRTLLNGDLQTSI

| EC50 [1] [nM] | EC50 ([2]; Table A) [nM] | Fold selectivity for SST5 vs SST2 ([2]; Table B) | EC50 ([2]; Table B) [nM] | SMILES |
| --- | --- | --- | --- | --- |
| 100 to 1000 | < 10 | +++ (+++=>500) | < 10 | C[C@H](NC(=O)c1cnc(OCCO)c(-c2cc(F)cc(F)c2)c1N1CC[C@](C)(N)C1)C1CC1 [1-246, 4-[(3S)-3-amino-3-methylpyrrolidin-1-yl]-N-[(1S)-1-cyclopropylethyl]-5-(3,5-difluorophenyl)-6-(2-hydroxyethoxy)pyridine-3-carboxamide] |
| > 1000 | < 10 | +++ (+++=>500) | < 10 | C[C@H](NC(=O)c1cnc(OCC(=O)O)c(-c2cc(F)cc(F)c2)c1N1CC[C@](C)(N)C1)C1CC1 [1-247, 2-({4-[(3S)-3-amino-3-methylpyrrolidin-1-yl]-5-{[(1S)-1-cyclopropylethyl]carbamoyl}-3-(3,5-difluorophenyl)pyridin-2-yl}oxy)acetic acid] |
| > 1000 | < 10 | +++ (+++=>500) | < 10 | C[C@]1(N)CCN(c2c(C(=O)NC3CCCC3)cnc(C#N)c2-c2ccnc(C(F)(F)F)c2)C1 [1-248, 4-[(3S)-3-amino-3-methylpyrrolidin-1-yl]-2-cyano-N-cyclopentyl-2′-(trifluoromethyl)-[3,4′-bipyridine]-5-carboxamide] |
| 100 to 1000 | < 10 | +++ (+++=>500) | < 10 | CCC(CC)NC(=O)c1cnc(C#N)c(-c2ccnc(C(F)(F)F)c2)c1N1CC[C@](C)(N)C1 [1-249, 4-[(3S)-3-amino-3-methylpyrrolidin-1-yl]-2-cyano-N-(pentan-3-yl)-2′-(trifluoromethyl)-[3,4′-bipyridine]-5-carboxamide] |
| > 1000 | < 10 | +++ (+++=>500) | < 10 | CC(C)CNC(=O)c1cnc(C#N)c(-c2ccnc(C(F)(F)F)c2)c1N1CC[C@](C)(N)C1 [1-250, 4-[(3S)-3-amino-3-methylpyrrolidin-1-yl]-2-cyano-N-(2-methylpropyl)-2′-(trifluoromethyl)-[3,4′-bipyridine]-5-carboxamide] |
| > 1000 | < 10 | +++ (+++=>500) | < 10 | CCCCNC(=O)c1cnc(C#N)c(-c2ccnc(C(F)(F)F)c2)c1N1CC[C@](C)(N)C1 [1-251, 4-[(3S)-3-amino-3-methylpyrrolidin-1-yl]-N-butyl-2-cyano-2′-(trifluoromethyl)-[3,4′-bipyridine]-5-carboxamide] |
| 100 to 1000 | < 10 | +++ (+++=>500) | < 10 | COc1cc(-c2c(C#N)ncc(C(=O)NC3CCCCC3)c2N2CC[C@](C)(N)C2)ccn1 [1-252, 4-[(3S)-3-amino-3-methylpyrrolidin-1-yl]-2-cyano-N-cyclohexyl-2′-methoxy-[3,4′-bipyridine]-5-carboxamide] |
| 100 to 1000 | < 10 | +++ (+++=>500) | < 10 | CCC(CC)NC(=O)c1cnc(C#N)c(-c2ccnc(OC)c2)c1N1CC[C@](C)(N)C1 [1-253, 4-[(3S)-3-amino-3-methylpyrrolidin-1-yl]-2-cyano-2′-methoxy-N-(pentan-3-yl)-[3,4′-bipyridine]-5-carboxamide] |
| > 1000 | < 10 | +++ (+++=>500) | < 10 | COc1cc(-c2c(C#N)ncc(C(=O)NC3CCCC3)c2N2CC[C@](C)(N)C2)ccn1 [1-254, 4-[(3S)-3-amino-3-methylpyrrolidin-1-yl]-2-cyano-N-cyclopentyl-2′-methoxy-[3,4′-bipyridine]-5-carboxamide] |
| > 1000 | < 10 | +++ (+++=>500) | < 10 | COc1cc(-c2c(C)ncc(C(=O)NC3CCCCC3)c2N2CC[C@](C)(N)C2)ccn1 [1-255, 4-[(3S)-3-amino-3-methylpyrrolidin-1-yl]-N-cyclohexyl-2′-methoxy-2-methyl-[3,4′-bipyridine]-5-carboxamide] |
| > 1000 | < 10 | +++ (+++=>500) | < 10 | COc1cc(-c2c(C)ncc(C(=O)NC3CCCC3)c2N2CC[C@](C)(N)C2)ccn1 [1-256, 4-[(3S)-3-amino-3-methylpyrrolidin-1-yl]-N-cyclopentyl-2′-methoxy-2-methyl-[3,4′-bipyridine]-5-carboxamide] |
| > 1000 | < 10 | +++ (+++=>500) | < 10 | Cc1ncc(C(=O)NC2CCCCC2)c(N2CC[C@](C)(N)C2)c1-c1ccnc(C(F)(F)F)c1 [1-257, 4-[(3S)-3-amino-3-methylpyrrolidin-1-yl]-N-cyclohexyl-2-methyl-2′-(trifluoromethyl)-[3,4′-bipyridine]-5-carboxamide] |
| > 1000 | < 10 | +++ (+++=>500) | < 10 | Cc1ncc(C(=O)NC2CCCC2)c(N2CC[C@](C)(N)C2)c1-c1ccnc(C(F)(F)F)c1 [1-258, 4-[(3S)-3-amino-3-methylpyrrolidin-1-yl]-N-cyclopentyl-2-methyl-2′-(trifluoromethyl)-[3,4′-bipyridine]-5-carboxamide] |
| 10 to 100 | < 10 | +++ (+++=>500) | < 10 | COc1ncc(C(=O)N[C@@H](C)C(F)(F)F)c(N2CC[C@](C)(N)C2)c1-c1ccc(F)c(F)c1 [1-259, 4-[(3S)-3-amino-3-methylpyrrolidin-1-yl]-5-(3,4-difluorophenyl)-6-methoxy-N-[(2S)-1,1,1-trifluoropropan-2-yl]pyridine-3-carboxamide] |
| 100 to 1000 | < 10 | +++ (+++=>500) | < 10 | COc1ncc(C(=O)N[C@@H](C)C(F)(F)F)c(N2CC[C@](C)(N)C2)c1-c1ccc(Cl)c(F)c1 [1-260, 4-[(3S)-3-amino-3-methylpyrrolidin-1-yl]-5-(4-chloro-3-fluorophenyl)-6-methoxy-N-[(2S)-1,1,1-trifluoropropan-2-yl]pyridine-3-carboxamide] |
| 100 to 1000 | < 10 | +++ (+++=>500) | < 10 | COc1ncc(C(=O)N[C@@H](C)C(F)(F)F)c(N2CC[C@](C)(N)C2)c1-c1ccc(F)c(Cl)c1 [1-261, 4-[(3S)-3-amino-3-methylpyrrolidin-1-yl]-5-(3-chloro-4-fluorophenyl)-6-methoxy-N-[(2S)-1,1,1-trifluoropropan-2-yl]pyridine-3-carboxamide] |
| 100 to 1000 | < 10 | +++ (+++=>500) | < 10 | COc1ncc(C(=O)N[C@@H](C)C2CC2)c(N2CC[C@](C)(N)C2)c1-c1ccc(F)c(F)c1 [1-262, 4-[(3S)-3-amino-3-methylpyrrolidin-1-yl]-N-[(1S)-1-cyclopropylethyl]-5-(3,4-difluorophenyl)-6-methoxypyridine-3-carboxamide] |
| > 1000 | < 10 | +++ (+++=>500) | < 10 | COc1ncc(C(=O)N[C@@H](C)C2CC2)c(N2CC[C@](C)(N)C2)c1-c1ccc(Cl)c(F)c1 [1-263, 4-[(3S)-3-amino-3-methylpyrrolidin-1-yl]-5-(4-chloro-3-fluorophenyl)-N-[(1S)-1-cyclopropylethyl]-6-methoxypyridine-3-carboxamide] |
| > 1000 | < 10 | +++ (+++=>500) | < 10 | C[C@H](NC(=O)c1cnc(OCCC(=O)O)c(-c2cc(F)cc(F)c2)c1N1CC[C@](C)(N)C1)C1CC1 [1-264, 3-({4-[(3S)-3-amino-3-methylpyrrolidin-1-yl]-5-{[(1S)-1-cyclopropylethyl]carbamoyl}-3-(3,5-difluorophenyl)pyridin-2-yl}oxy)propanoic acid] |
| > 1000 | < 10 | +++ (+++=>500) | < 10 | C[C@H](NC(=O)c1cnc(OCCCC(=O)O)c(-c2cc(F)cc(F)c2)c1N1CC[C@](C)(N)C1)C1CC1 [1-265, 4-({4-[(3S)-3-amino-3-methylpyrrolidin-1-yl]-5-{[(1S)-1-cyclopropylethyl]carbamoyl}-3-(3,5-difluorophenyl)pyridin-2-yl}oxy)butanoic acid] |
| > 1000 | < 10 | +++ (+++=>500) | < 10 | C[C@H](NC(=O)c1cnc(OCC2COC2)c(-c2cc(F)cc(F)c2)c1N1CC[C@](C)(N)C1)C1CC1 [1-266, 4-[(3S)-3-amino-3-methylpyrrolidin-1-yl]-N-[(1S)-1-cyclopropylethyl]-5-(3,5-difluorophenyl)-6-[(oxetan-3-yl)methoxy]pyridine-3-carboxamide] |
| 100 to 1000 | < 10 | +++ (+++=>500) | < 10 | C[C@H](NC(=O)c1cnc(OCc2ccccc2)c(-c2cc(F)cc(F)c2)c1N1CC[C@](C)(N)C1)C1CC1 [1-267, 4-[(3S)-3-amino-3-methylpyrrolidin-1-yl]-6-(benzyloxy)-N-[(1S)-1-cyclopropylethyl]-5-(3,5-difluorophenyl)pyridine-3-carboxamide] |

Reference: patent US12600709B2, “Nonpeptide somatostatin type 5 receptor agonists and uses thereof” (Crinetics Pharmaceuticals, Inc., priority 2019, dated 2026)
